From publication PMC2878666 (Biochemistry, 2009)

How the values were obtained:
[1] = target: T1, nicotinic acetylcholine receptor (Torpedo nAChR, α2βγδ), α subunit (Tetronarce californica, UniProt P02710+P02712+P02714+P02718); assay: [3H]PCP radioligand displacement, centrifugation assay; assay type: binding
[2] = target: T1, nicotinic acetylcholine receptor (Torpedo nAChR, α2βγδ), α subunit; assay: [3H]PCP radioligand displacement; assay type: binding

T1 sequence (P02710 25-461): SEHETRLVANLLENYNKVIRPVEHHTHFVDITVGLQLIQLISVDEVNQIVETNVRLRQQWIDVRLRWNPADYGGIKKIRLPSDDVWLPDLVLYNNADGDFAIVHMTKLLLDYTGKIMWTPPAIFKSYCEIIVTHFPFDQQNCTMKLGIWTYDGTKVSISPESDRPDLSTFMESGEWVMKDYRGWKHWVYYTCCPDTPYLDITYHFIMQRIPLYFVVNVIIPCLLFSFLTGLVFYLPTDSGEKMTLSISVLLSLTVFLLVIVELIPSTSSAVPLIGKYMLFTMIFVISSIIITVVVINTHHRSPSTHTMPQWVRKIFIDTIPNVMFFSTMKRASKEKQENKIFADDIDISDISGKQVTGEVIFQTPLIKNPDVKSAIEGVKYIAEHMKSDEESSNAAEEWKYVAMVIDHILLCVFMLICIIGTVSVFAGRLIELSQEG
T1 sequence (P02712 25-493): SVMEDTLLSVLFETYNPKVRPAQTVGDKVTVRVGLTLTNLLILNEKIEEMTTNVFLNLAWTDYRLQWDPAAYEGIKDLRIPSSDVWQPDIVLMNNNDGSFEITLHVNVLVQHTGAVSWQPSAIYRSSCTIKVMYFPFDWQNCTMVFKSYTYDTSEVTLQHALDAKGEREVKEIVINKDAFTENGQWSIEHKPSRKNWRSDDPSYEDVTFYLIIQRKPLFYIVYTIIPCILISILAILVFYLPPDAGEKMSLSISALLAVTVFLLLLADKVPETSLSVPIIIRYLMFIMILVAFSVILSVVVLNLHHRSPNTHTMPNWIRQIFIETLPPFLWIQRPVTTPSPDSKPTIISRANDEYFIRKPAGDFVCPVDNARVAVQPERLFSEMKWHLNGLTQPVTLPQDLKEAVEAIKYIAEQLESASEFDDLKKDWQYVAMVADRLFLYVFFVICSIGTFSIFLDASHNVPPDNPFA
T1 sequence (P02714 18-506): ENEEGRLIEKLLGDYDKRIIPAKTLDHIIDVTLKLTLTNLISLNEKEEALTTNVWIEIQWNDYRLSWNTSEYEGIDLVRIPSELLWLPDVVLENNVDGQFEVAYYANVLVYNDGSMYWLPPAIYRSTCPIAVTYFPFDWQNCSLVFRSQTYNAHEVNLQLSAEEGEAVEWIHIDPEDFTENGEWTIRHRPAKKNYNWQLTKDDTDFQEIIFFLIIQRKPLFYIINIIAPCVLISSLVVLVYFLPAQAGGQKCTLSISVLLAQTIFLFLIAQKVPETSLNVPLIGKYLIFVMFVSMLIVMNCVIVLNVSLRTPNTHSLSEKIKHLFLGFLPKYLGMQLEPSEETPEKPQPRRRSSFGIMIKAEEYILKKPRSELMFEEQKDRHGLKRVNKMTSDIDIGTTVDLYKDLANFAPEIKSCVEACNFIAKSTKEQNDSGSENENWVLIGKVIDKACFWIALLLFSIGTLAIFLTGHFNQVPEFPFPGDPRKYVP
T1 sequence (P02718 22-522): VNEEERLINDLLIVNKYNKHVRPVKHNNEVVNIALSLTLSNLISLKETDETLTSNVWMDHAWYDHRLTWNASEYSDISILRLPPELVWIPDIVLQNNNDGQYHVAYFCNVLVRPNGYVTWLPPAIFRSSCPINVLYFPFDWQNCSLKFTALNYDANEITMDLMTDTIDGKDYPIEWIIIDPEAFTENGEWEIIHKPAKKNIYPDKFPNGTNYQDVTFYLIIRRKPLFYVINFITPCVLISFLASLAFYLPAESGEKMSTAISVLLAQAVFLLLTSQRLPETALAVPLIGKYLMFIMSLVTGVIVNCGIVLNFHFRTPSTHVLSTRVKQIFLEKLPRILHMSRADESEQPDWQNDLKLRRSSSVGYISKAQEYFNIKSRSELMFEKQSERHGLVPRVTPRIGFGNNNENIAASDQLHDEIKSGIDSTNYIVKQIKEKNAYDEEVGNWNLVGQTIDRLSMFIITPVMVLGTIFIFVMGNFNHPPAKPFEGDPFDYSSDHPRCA

Row | Compound | IC50 [1] | IC50 [2]
1 | CN(C)CCCN1c2ccccc2[S+]([O-])c2ccc(Cl)cc21 (stereo not drawn) [CPZsulfoxide, chlorpromazine sulfoxide] | 69 ± 6 µM | 
2 | CN(C)CCCN1c2ccccc2Sc2ccccc21 [promazine] | 3.5 ± 0.2 µM | 
3 | CN(C)CCCN1c2ccccc2Sc2ccc(Cl)cc21 [CPZ, chlorpromazine] |  | 2.3 ± 0.4 µM
